Measured values reported in patent US12077503B2, “Substituted cyclic amides and their use as herbicides” (FMC CORPORATION, priority 2015, dated 2024).
Where two headings read alike, the source gives them in different places.

Legend:
Assay in all cases: Test A postemergence
Assay type in all cases: in vivo
[1] = test system: Galium (catchweed bedstraw, Galium aparine); details: Galium, post-emergence, 240 h, Postemergence; for pest or weed control at 125 g/ha: 125 g ai/ha; for pest or weed control at 500 g/ha: 500 g ai/ha, visual injury, 0 to 100 scale (0 no effect, 100 complete control), approx. 10 d
Method in brief: (§1)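 Greenhouse, ~10 d after spray; visual injury vs untreated controls, 0 = no effect, 100 = complete control. Preemergence: directed soil spray over planted seeds. Postemergence: plants 2–10 cm, 1–2 leaf stage. Loam/sand blend. Compound in non-phytotoxic solvent with surfactant.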

corn (Zea mays) = details: Zea mays, post-emergence, 240 h, Postemergence; for plant injury at 125 g/ha: visual rating about 10 d after treatment, read-out: Corn plant response rating (0 to 100 scale); for Corn plant response rating (crop injury, 0 = no effect, 100 = complete kill) at 500 g/ha: 500 g ai/ha, visual injury, 0 to 100 scale (0 no effect, 100 complete control), approx. 10 d
Method in brief: as §1

[2] = test system: pigweed (Amaranthus retroflexus); details: Amaranthus retroflexus, post-emergence, 240 h, Postemergence; for pest or weed control at 125 g/ha: 125 g ai/ha; for pest or weed control at 500 g/ha: 500 g ai/ha, visual injury, 0 to 100 scale (0 no effect, 100 complete control), approx. 10 d
Method in brief: as §1

[3] = test system: ryegrass, Italian (Italian ryegrass, Lolium multiflorum); details: Lolium multiflorum, post-emergence, 240 h, Postemergence; for pest or weed control at 125 g/ha: 125 g ai/ha; for pest or weed control at 500 g/ha: 500 g ai/ha, visual injury, 0 to 100 scale (0 no effect, 100 complete control), approx. 10 d
Method in brief: as §1

[4] = test system: wheat (Triticum aestivum); details: Triticum aestivum, post-emergence, 240 h, Postemergence; for plant injury at 125 g/ha: 125 g ai/ha; for plant injury at 500 g/ha: 500 g ai/ha, visual injury, 0 to 100 scale (0 no effect, 100 complete control), approx. 10 d
Method in brief: as §1

[5] = visual rating about 10 d after treatment, read-out: Galium plant response rating (0 to 100 scale)
[6] = read-out: Plant response rating, Galium
[7] = visual rating about 10 d after treatment, read-out: Pigweed plant response rating (0 to 100 scale)
[8] = read-out: Plant response rating, Pigweed
[9] = visual rating about 10 d after treatment, read-out: Ryegrass, Italian plant response rating (0 to 100 scale)
[10] = read-out: Plant response rating, Ryegrass, Italian
[11] = visual rating about 10 d after treatment, read-out: Wheat plant response rating (0 to 100 scale)
[12] = read-out: Plant response rating, Wheat

SMILES	pest or weed control at 125 g/ha [1, 5] [%]	pest or weed control at 500 g/ha [1, 6] [%]	plant injury at 125 g/ha (corn (Zea mays); 125 g ai/ha) [%]	Corn plant response rating (crop injury, 0 = no effect, 100 = complete kill) at 500 g/ha (corn (Zea mays)) [%]	pest or weed control at 125 g/ha [2, 7] [%]	pest or weed control at 500 g/ha [2, 8] [%]	pest or weed control at 125 g/ha [3, 9] [%]	pest or weed control at 500 g/ha [3, 10] [%]	plant injury at 125 g/ha [4, 11] [%]	plant injury at 500 g/ha [4, 12] [%]	pest or weed control at 125 g/ha ([1]; visual injury after approx. 10 d, 0 to 100 scale, 0 no effect, 100 complete control, read-out: Plant response rating, Galium) [%]	Corn plant response rating (crop injury, 0 = no effect, 100 = complete kill) at 125 g/ha (corn (Zea mays); 125 g ai/ha, visual injury after approx. 10 d, 0 to 100 scale, 0 no effect, 100 complete control) [%]	pest or weed control at 125 g/ha ([2]; visual injury after approx. 10 d, 0 to 100 scale, 0 no effect, 100 complete control, read-out: Plant response rating, Pigweed) [%]	pest or weed control at 125 g/ha ([3]; visual injury after approx. 10 d, 0 to 100 scale, 0 no effect, 100 complete control, read-out: Plant response rating, Ryegrass, Italian) [%]	plant injury at 125 g/ha ([4]; visual injury after approx. 10 d, 0 to 100 scale, 0 no effect, 100 complete control, read-out: Plant response rating, Wheat) [%]
CSc1ccccc1NC(=O)[C@H]1C(=O)N(C)C[C@@H]1c1ccc(F)c(C)c1 [Compound 1312]	50	60	40	90	0	40	30	50	30	80	–	–	–	–	–
CN1C[C@H](c2ccc3c(c2)CCO3)[C@@H](C(=O)Nc2ccccc2F)C1=O [Compound 1321]	30	50	40	70	0	0	20	50	20	50	–	–	–	–	–
O=C1NC[C@H](c2cncs2)[C@H]1C(=O)Nc1ccccc1F [Compound 1335]	0	0	0	0	0	0	0	0	0	0	–	–	–	–	–
CN1C[C@H](c2ccc(C(F)(F)F)nc2)[C@@H](C(=O)Nc2ccc(F)c(F)c2F)C1=O [Compound 1373]	60	60	90	90	70	90	30	50	50	60	–	–	–	–	–
N#Cc1cc([C@H]2CNC(=O)[C@]2(O)C(=O)Nc2cccc(F)c2F)ccc1F [Compound 1374]	0	0	0	0	0	0	0	0	0	0	–	–	–	–	–
CN1C[C@H](c2ccc(C(F)(F)F)cc2)[C@@H](C(=O)Nc2ccccc2C#N)C1=O [Compound 1379]	40	60	70	70	20	50	30	30	30	50	–	–	–	–	–
CN1C[C@H](c2ccc(C(F)(F)F)cc2)[C@@H](C(=O)Nc2cccc(C#N)c2F)C1=O [Compound 1381]	50	60	40	60	70	70	50	60	30	50	–	–	–	–	–
CN1CC[C@H](c2cccc(C(F)(F)F)c2)[C@@H](C(=O)Nc2ccc(F)c(F)c2F)C1=O [Compound 1395]	–	0	–	70	–	0	–	20	–	40	0	50	0	20	20
